# Measurements: patent publication US20220096602A1, “LIF THERAPY FOR INDUCING INTESTINAL EPITHELIAL CELL REGENERATION” (Rutgers, the State University of New Jersey, priority 2019, published 2022)
# Assays:
# [1] = single s.c. dose, up to doses of 4 μg/kg, healthy volunteers; cited from earlier work
# [2] = patients with advanced cancers; cited from earlier work
# [3] = test system: LIF KO intestinal organoids; assay: Intestinal organoid culture: growth and proliferation of LIF KO organoids; format: cell-based, mouse; details: for stem cell number in LIF KO organoids: organoids from LIF KO, Lgr5-GFP mouse crypts; for growth and proliferation of LIF KO organoids: Stattic 2 μM, SB242235 1 μM
# Description: (§1) Crypt isolation and organoid culture were performed as described previously (Nan Gao's paper, 2015, Development). Crypts were isolated from the mouse small intestine. 150-200 crypts were embedded in growth factor-reduced Matrigel and cultured with mouse ENR organoid culture medium containing 1×B27 (Life Tech Gibco), 1×N2 (Life Tech Gibco), 1 mM N-acetylcysteine (Sigma), 50 ng/ml of EGF (Life Technology), 100 ng/ml of Noggin (R&D System), and 1 μg/ml of R-spondin 1 (R&D system). Recombinant mouse LIF (Millipore), wortmannin (Cell Signaling Technology) and CHIR99021 (Stemgent) were used for organoid treatment.
# (§2) The size organoid was evaluated by quantify surface area of horizontal cross section of organoids acquired from multiple random non-overlapping pictures by an Olympus inverted microscope using ImageJ software. The vertical direction of expansion was not included in the calculations. n≥30/group. The percentages of budding organoids were analyzed by light microscopy at different days during organoid culture. n≥100/group.
# (§3) IF staining of organoids was performed as previously described (Gao and Kaestner, 2010). In brief, organoids were fixed with 4% paraformaldehyde for 10 min, treated with 0.5% TritonX-100 for 10 min and blocked with 10% goat serum in IF buffer (0.1% BSA, 0.2% Triton X100, 0.05% Tween-20, 0.05% NaN3 in PBS) for 2 hours. Organoids were incubated with anti-Ki67 (Abcam, ab16667, 1:200 dilution) and anti-GFP (Abcam, ab6673, 1:1000 dilution) antibodies overnight at room temperature and then incubated with Alexa Fluor® 555 Goat Anti-Rabbit IgG (H+L) (Invitrogen, 1:800 dilution) and Alexa Fluor® 488 Donkey Anti-Goat IgG (H+L) (Invitrogen, 1:200 dilution), respectively to detect Ki67 and Lgr5-EGFP. Nuclei were stained with 4′, 6-diamidino-2-phenylindole (DAPI; Vector).
# WT intestinal organoids = assay: Intestinal organoid culture: growth and proliferation of WT organoids; format: cell-based, mouse; details: for stem cell number in WT organoids: organoids from WT, Lgr5-GFP mouse crypts; for growth and proliferation of WT organoids: Stattic 2 μM, SB242235 1 μM; for effect on ISC functions in WT organoids: blocking STAT3 or MAPK activity
# Description: as §1, §2, §3
# [4] = test system: β-catenin target genes Axin2, Ascl1, Olfm4 and Lgr5; assay: Quantitative real-time PCR of β-catenin target genes in organoids; format: cell-based, mouse; details: normalized with β-actin
# Description: Total RNA from mice small intestine tissues or organoids was prepared by using an RNeasy kit (Qiagen). Quantitative real-time PCR assays were performed as described previously. The expression of genes was normalized with the β-actin gene. Data was obtained from 5 independent biological samples with 3 technical replicates. To investigate whether LIF regulates ISC function through upregulating the AKT signaling, WT and LIF KO organoids were treated with Wortmannin, a PI3K inhibitor that inhibits the PI3K/Akt signaling, and Capivasertib, a specific AKT inhibitor (31, 32). […] Further, we directly examined the effects of Capivasertib and SC79 on β-catenin activity by measuring the mRNA levels of its target genes in WT and LIF KO organoids. […] We further treated organoids formed by WT or LIF KO; Lgr5-GFP mouse crypts with Wortmannin, Capivasertib or SC79. […] We further examined whether blocking GSK3β can improve the growth of LIF KO organoids.
# LIF receptor (LIFR) = target: T1, LIF receptor (LIFR) (Homo sapiens, UniProt P42702); details: cited from earlier work
# T1 sequence (P42702 45-1097): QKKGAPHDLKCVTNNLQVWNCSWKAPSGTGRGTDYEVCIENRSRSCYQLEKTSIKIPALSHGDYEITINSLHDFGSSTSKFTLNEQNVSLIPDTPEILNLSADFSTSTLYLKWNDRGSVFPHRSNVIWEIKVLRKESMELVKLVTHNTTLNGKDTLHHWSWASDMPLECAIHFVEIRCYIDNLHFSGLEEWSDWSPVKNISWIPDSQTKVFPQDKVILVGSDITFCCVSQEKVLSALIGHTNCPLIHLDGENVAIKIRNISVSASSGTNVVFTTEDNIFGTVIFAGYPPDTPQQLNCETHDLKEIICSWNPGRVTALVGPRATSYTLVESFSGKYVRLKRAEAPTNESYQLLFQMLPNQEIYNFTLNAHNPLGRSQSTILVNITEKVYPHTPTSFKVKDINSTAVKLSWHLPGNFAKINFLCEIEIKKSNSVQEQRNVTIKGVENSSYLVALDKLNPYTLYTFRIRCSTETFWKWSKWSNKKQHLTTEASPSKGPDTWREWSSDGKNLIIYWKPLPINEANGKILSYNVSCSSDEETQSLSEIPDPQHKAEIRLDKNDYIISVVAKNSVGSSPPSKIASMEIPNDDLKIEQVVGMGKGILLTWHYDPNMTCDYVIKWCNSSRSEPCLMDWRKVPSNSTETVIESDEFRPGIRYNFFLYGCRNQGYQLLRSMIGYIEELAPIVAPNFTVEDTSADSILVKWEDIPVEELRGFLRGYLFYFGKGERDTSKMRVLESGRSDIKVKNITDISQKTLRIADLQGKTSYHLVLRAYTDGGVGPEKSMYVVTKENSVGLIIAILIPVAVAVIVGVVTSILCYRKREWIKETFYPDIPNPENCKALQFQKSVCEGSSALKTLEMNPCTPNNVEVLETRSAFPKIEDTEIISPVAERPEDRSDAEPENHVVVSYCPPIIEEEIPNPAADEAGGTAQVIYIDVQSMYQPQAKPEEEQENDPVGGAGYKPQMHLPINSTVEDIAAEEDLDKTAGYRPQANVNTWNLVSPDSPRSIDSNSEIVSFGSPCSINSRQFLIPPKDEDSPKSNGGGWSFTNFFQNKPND
# [5] = target: T2, gp130 (LIF:LIFR:gp130 complex) (Homo sapiens, UniProt P40189+P42702); details: after binding to LIFR; cited from earlier work
# T2 sequence (P40189 23-918): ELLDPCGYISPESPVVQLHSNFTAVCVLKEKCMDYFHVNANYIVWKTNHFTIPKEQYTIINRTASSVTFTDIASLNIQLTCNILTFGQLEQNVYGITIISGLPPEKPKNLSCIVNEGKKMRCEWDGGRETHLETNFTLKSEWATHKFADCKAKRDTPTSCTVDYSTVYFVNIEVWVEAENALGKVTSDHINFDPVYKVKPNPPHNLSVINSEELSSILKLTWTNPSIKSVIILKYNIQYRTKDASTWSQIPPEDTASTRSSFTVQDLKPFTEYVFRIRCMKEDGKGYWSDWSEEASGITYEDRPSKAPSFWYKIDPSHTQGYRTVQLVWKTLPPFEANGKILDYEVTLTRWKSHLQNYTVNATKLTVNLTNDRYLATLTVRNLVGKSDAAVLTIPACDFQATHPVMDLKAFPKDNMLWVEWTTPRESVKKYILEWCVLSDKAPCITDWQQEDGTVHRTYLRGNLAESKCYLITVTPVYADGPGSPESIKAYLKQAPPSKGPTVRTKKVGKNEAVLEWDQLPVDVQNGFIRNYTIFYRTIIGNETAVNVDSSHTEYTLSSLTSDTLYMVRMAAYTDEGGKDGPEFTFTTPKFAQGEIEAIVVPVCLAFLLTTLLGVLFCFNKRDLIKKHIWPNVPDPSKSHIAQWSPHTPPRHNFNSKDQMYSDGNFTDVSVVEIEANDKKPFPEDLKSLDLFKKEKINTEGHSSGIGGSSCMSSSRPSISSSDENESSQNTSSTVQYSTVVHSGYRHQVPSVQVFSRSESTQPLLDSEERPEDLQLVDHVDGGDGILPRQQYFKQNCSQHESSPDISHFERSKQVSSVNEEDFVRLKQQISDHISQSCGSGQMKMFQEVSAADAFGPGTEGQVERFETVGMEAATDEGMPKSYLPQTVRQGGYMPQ
# T2 sequence (P42702 45-1097): T1 sequence (P42702 45-1097)
# intestinal epithelium = assay: Regeneration of intestinal epithelium after irradiation in inducible LIF-tgflox/+/Cre-ERT2 mice; format: in vivo, mouse; details: tamoxifen-induced LIF expression; i.p. 3 days before 12 Gy IR; 72 h after irradiation
# Description: Eight-twelve-week-old male and female LIF-tg^flox/+/Cre-ERT2 mice were injected (i.p.) with tamoxifen ([…] body weight for male and […] body weight for female) to induce LIF expression 3 days before irradiation (D-3). Age- and gender-matched LIF-tg^flox/+/Cre-ERT2 mice were injected with corn oil as control on D-3. On D0 mice were subject to 12 Gy-whole-body irradiated. Mouse intestine tissue was collected at 72 h after irradiation (D3). The levels of Ki67 in intestinal epithelium were determined by immunohistochemistry (IHC) staining. n=6 in Tamoxifen treated group, n=4 in control group.
compound,measurement,setting,value
rhLIF: Emfilermin is the term used for rhLIF produced in Escherichia coli,safety and tolerability,[1],safe and well tolerated
same,adverse effects on blood progenitor cells,[2],no adverse effects
same,hematopoietic recovery after chemotherapy,[2],normal
same,safety of administration,[2],safely administered
Cc1c[nH]c(-c2cnc(NCCNc3ccc(C#N)cn3)nc2-c2ccc(Cl)cc2Cl)n1 [CHIR99021],"growth, cell proliferation and stem cell number of LIF KO organoids",[3]; CHIR99021 3 μM,greatly improved
same,"growth, cell proliferation and stem cell number of WT organoids","WT intestinal organoids; CHIR99021 3 μM, compared with LIF KO organoids",much less pronounced effect
NC1(C(=O)N[C@@H](CCO)c2ccc(Cl)cc2)CCN(c2ncnc3[nH]ccc23)CC1 [Capivasertib],rescue effect of recombinant LIF on the growth of LIF KO organoids,[3]; inhibitor 1 μM with LIF 50 ng/ml,largely abolished
same,inhibitory effects on organoid growth and cell proliferation in LIF KO organoids,"[3]; inhibitor 1 μM, compared with WT organoids",much less pronounced
same,stem cell number in LIF KO organoids,[3],much less pronounced inhibitory effect
same,"mRNA levels of Axin2, Ascl1, Olfm4 and Lgr5 in LIF KO organoids",[4],less pronounced effect
same,"mRNA levels of Axin2, Ascl1, Olfm4 and Lgr5 in WT organoids",[4],significantly decreased
same,"growth of WT organoids and cell proliferation (surface area, organoid formation, Ki67+ cells)","WT intestinal organoids; inhibitor 1 μM, WT organoids",greatly inhibited
same,stem cell number in WT organoids,WT intestinal organoids,greatly decreased
O=[N+]([O-])c1ccc2c(c1)S(=O)(=O)C=C2 [Stattic],growth and proliferation of LIF KO organoids,[3],did not have a significant effect
same,growth and proliferation of WT organoids,WT intestinal organoids,did not have a significant effect
same,effect on ISC functions in WT organoids,WT intestinal organoids,very limited effect
COc1nccc(-c2c(-c3ccc(F)cc3)ncn2C2CCNCC2)n1 [SB242235],growth and proliferation of LIF KO organoids,[3],did not have a significant effect
same,growth and proliferation of WT organoids,WT intestinal organoids,did not have a significant effect
same,effect on ISC functions in WT organoids,WT intestinal organoids,no obvious effect
CCOC(=O)C1=C(N)Oc2ccc(Cl)cc2C1C(C#N)C(=O)OCC (stereo not shown) [SC79],growth and cell proliferation of LIF KO organoids,[3]; SC79 5 μM,greatly improved
same,stem cell number in LIF KO organoids,[3],greatly increased
same,"mRNA levels of Axin2, Ascl1, Olfm4 and Lgr5 in LIF KO organoids",[4],greatly increased
same,"mRNA levels of Axin2, Ascl1, Olfm4 and Lgr5 in WT organoids",[4],less pronounced effect
same,growth and cell proliferation of WT organoids,"WT intestinal organoids; SC79 5 μM, compared with LIF KO organoids",less pronounced effect
same,stem cell number in WT organoids,WT intestinal organoids,less pronounced effect
"human LIF: Human canonical LIF, accession number P15018, SEQ ID NO: 1",affinity of binding to LIFR,LIF receptor (LIFR),low nanomolar
same,affinity of functional signaling complex with gp130,[5],picomolar
CC/C(=C(\c1ccccc1)c1ccc(OCCN(C)C)cc1)c1ccccc1 [tamoxifen],"intestinal crypt regeneration (viable crypts), higher than controls",intestinal epithelium,~50%
